Data taken from the supplement of paper PMC13380429.
Where a name gives a salt, the structure may show the parent alone.

Key:
Conditions in all cases: 72 h
[1] = tested on: Caco-2; test: cell viability relative to DMSO; higher = less toxic
[2] = tested on: Calu-3; test: as above
[3] = tested on: HepG2; test: as above
[4] = tested on: U2OS; test: as above
[5] = tested on: Vero E6; test: as above
[6] = tested on: Caco-2; test: relative viability EC50 (midpoint between 100% and the lowest measured viability); higher = less toxic
[7] = tested on: Calu-3; test: as above
[8] = tested on: HepG2; test: as above
[9] = tested on: U2OS; test: as above
[10] = tested on: Vero E6; test: as above
[11] = tested on: Caco-2; test: drug sensitivity score (DSS) for viability; higher = more toxic; extreme values may be limits of the assay
[12] = tested on: Calu-3; test: as above
[13] = tested on: HepG2; test: as above
[14] = tested on: U2OS; test: as above
[15] = tested on: Vero E6; test: as above

| Structure (SMILES) | cell viability ([1]; 1 nM) [%] | cell viability ([1]; 10 nM) [%] | cell viability ([1]; 100 nM) [%] | cell viability ([1]; 1000 nM) [%] | cell viability ([1]; 10000 nM) [%] | cell viability ([2]; 1 nM) [%] | cell viability ([2]; 10 nM) [%] | cell viability ([2]; 100 nM) [%] | cell viability ([2]; 1000 nM) [%] | cell viability ([2]; 10000 nM) [%] | cell viability ([3]; 1 nM) [%] | cell viability ([3]; 10 nM) [%] | cell viability ([3]; 100 nM) [%] | cell viability ([3]; 1000 nM) [%] | cell viability ([3]; 10000 nM) [%] | cell viability ([4]; 1 nM) [%] | cell viability ([4]; 10 nM) [%] | cell viability ([4]; 100 nM) [%] | cell viability ([4]; 1000 nM) [%] | cell viability ([4]; 10000 nM) [%] | cell viability ([5]; 1 nM) [%] | cell viability ([5]; 10 nM) [%] | cell viability ([5]; 100 nM) [%] | cell viability ([5]; 1000 nM) [%] | cell viability ([5]; 10000 nM) [%] | relative viability EC50 [6] [µM] | relative viability EC50 [7] [µM] | relative viability EC50 [8] [µM] | relative viability EC50 [9] [µM] | relative viability EC50 [10] [µM] | drug sensitivity score [11] | drug sensitivity score [12] | drug sensitivity score [13] | drug sensitivity score [14] | drug sensitivity score [15] |
| --- | --- | --- | --- | --- | --- | --- | --- | --- | --- | --- | --- | --- | --- | --- | --- | --- | --- | --- | --- | --- | --- | --- | --- | --- | --- | --- | --- | --- | --- | --- | --- | --- | --- | --- | --- |
| N#Cc1cc(F)cc(-c2nc(-c3ccc(F)cn3)no2)c1 [AZD9272] | 96.7 | 105 | 101 | 111 | 94.8 | 109 | 92.1 | 97.7 | 90.4 | 97.5 | 94.3 | 99.5 | 95.5 | 107 | 96.2 | 94.9 | 99 | 96.7 | 104 | 103 | 96.7 | 95.2 | 95.8 | 89.5 | 108 | > 10 | > 10 | > 10 | > 10 | > 10 | 0 | 0 | 0 | 0 | 0 |
| COc1ccccc1N1CCN(CCN2C(=O)CC3(CCCC3)CC2=O)CC1 [BMY-7378] | 89 | 93.9 | 97.5 | 97.3 | 103 | 92.7 | 95.2 | 109 | 110 | 106 | 106 | 102 | 105 | 98.4 | 108 | 93.5 | 100 | 96.3 | 95.8 | 102 | 97.3 | 95.6 | 99.9 | 90.1 | 106 | > 10 | > 10 | > 10 | > 10 | > 10 | 0 | 0 | 0 | 0 | 0 |
| CCC(=O)O[C@]1(C(=O)CO)CC[C@H]2[C@@H]3CCC4=CC(=O)CC[C@]4(C)[C@H]3CC[C@@]21C [CB-03-01] | 99.4 | 103 | 100 | 101 | 101 | 93.7 | 97 | 102 | 109 | 94.9 | 102 | 106 | 90.8 | 95.4 | 96.1 | 99.9 | 104 | 98.3 | 102 | 97 | 101 | 107 | 101 | 96.8 | 99.6 | > 10 | > 10 | > 10 | > 10 | > 10 | 0 | 0 | 0 | 0 | 0 |
| CO/N=C(\C(=O)N[C@@H]1C(=O)N2C(C(=O)O)=C(CSC(=O)c3ccco3)CS[C@H]12)c1csc(N)n1 [CEFTIOFUR HYDROCHLORIDE] | 99.9 | 97 | 90.6 | 95.4 | 99.3 | 96.3 | 110 | 99.4 | 104 | 102 | 106 | 98.5 | 92.4 | 103 | 103 | 104 | 95.6 | 100 | 97.4 | 104 | 92.5 | 107 | 93.9 | 96.9 | 106 | > 10 | > 10 | > 10 | > 10 | > 10 | 0 | 0 | 0 | 0 | 0 |
